# Assay results: patent publication US20260232767A1, “INTERLEUKIN-23 RECEPTOR ANTAGONIST PEPTIDES FOR USE IN THE TREATMENT OF PSORIASIS” (Janssen Pharmaceutica NV, priority 2023, published 2026)
# System: subjects with moderate-to-severe plaque psoriasis
# Assay: Safety, adverse events, Example 2 through Week 56
# Format: in vivo, human
# Set-up: Participants experiencing 1 or more AEs: unit not given here
# Details: for Subjects with 1 or more Adverse events / Subjects with 1 or more Adverse events: Alanine aminotransferase increased / Subjects with 1 or more Adverse events: Arthralgia / Subjects with 1 or more Adverse events: Aspartate aminotransferase increased / Subjects with 1 or more Adverse events: Bronchitis / Subjects with 1 or more Adverse events: COVID-19 / Subjects with 1 or more Adverse events: Cough / Subjects with 1 or more Adverse events: Diarrhea / Subjects with 1 or more Adverse events: Headache / Subjects with 1 or more Adverse events: Influenza / Subjects with 1 or more Adverse events: Nasopharyngitis / Subjects with 1 or more Adverse events: Upper respiratory tract infection / Subjects with 1 or more Adverse events: Urinary tract infection / Subjects with 1 or more Serious adverse events / Subjects with 1 or more Serious adverse events: COVID-19 / Subjects with 1 or more Serious adverse events: Cerebrovascular accident / Subjects with 1 or more Serious adverse events: Coronary artery disease / Subjects with 1 or more Serious adverse events: Diverticulitis / Subjects with 1 or more Serious adverse events: Foot deformity / Subjects with 1 or more Serious adverse events: Infected cyst / Subjects with 1 or more Serious adverse events: Intervertebral disc protrusion / Subjects with 1 or more Serious adverse events: Ligament injury / Subjects with 1 or more Serious adverse events: Non-cardiac chest pain / Subjects with 1 or more Serious adverse events: Suicide attempt / Subjects with 1 or more Serious adverse events: Tonsillar hypertrophy / Subjects with 1 or more Serious adverse events: Uterine leiomyoma / Subjects with 1 or more Serious adverse events: Ventricular dysfunction / Subjects with 1 or more treatment-emergent adverse events leading to discontinuation of study agent: number of subjects
# Text: The LTE safety analysis was based on randomized participants in Example who entered the present long-term extension study and received at least one dose of study intervention (including a partial dose) during the study period.
# [1] = Placebo → 100 mg QD, through Week 56
# [2] = Week 16 through Week 56, dose group = column
# [3] = combined group, long-term extension
smiles,measurement,setting,value
"CC(=O)NCCCC[C@@H]1NC(=O)[C@H](Cc2c[nH]c3c(C)cccc23)NC(=O)[C@H]([C@@H](C)O)NC(=O)[C@H](CC(N)=O)NC(=O)[C@@H](NC(C)=O)C(C)(C)SSC(C)(C)[C@@H](C(=O)N[C@@H](Cc2ccc(OCCN)cc2)C(=O)N[C@@H](Cc2ccc3ccccc3c2)C(=O)NC2(C(=O)N[C@@H](CCC(=O)O)C(=O)N[C@@H](CC(N)=O)C(=O)N[C@@H](Cc3cccnc3)C(=O)N(C)CC(N)=O)CCOCC2)NC1=O [IL-23 receptor antagonist peptide, Ac-[Pen]*-N-T-[W(7-Me)]-[Lys(Ac)]-[Pen]*-Phe[4-(2-aminoethoxy)]-[2-Nal]-[THP]-E-N-[3-Pal]-Sarc-NH2 (*[Pen]-[Pen]* formdisulfidebond)]",Pyrexia: number of subjects,[1],0
same,Rash pruritic: number of subjects,[1],0
same,Renal and urinary disorders: % of subjects,[1],(5.7%)
same,Renal and urinary disorders: number of subjects,[1],2
same,Renal mass: number of subjects,[1],0
same,"Respiratory, thoracic and mediastinal disorders: % of subjects",[1],(2.9%)
same,"Respiratory, thoracic and mediastinal disorders: number of subjects",[1],1
same,Retinal vein occlusion: % of subjects,[1],(2.9%)
same,Retinal vein occlusion: number of subjects,[1],1
same,Rhinorrhoea: number of subjects,[1],0
same,Seasonal allergy: number of subjects,[1],0
same,Skin and subcutaneous tissue disorders: % of subjects,[1],(5.7%)
same,Skin and subcutaneous tissue disorders: number of subjects,[1],2
same,Skin laceration: number of subjects,[1],0
same,Skin papilloma: number of subjects,[1],0
same,Social circumstances: number of subjects,[1],0
same,Steatohepatitis: number of subjects,[1],0
same,Suicide attempt: number of subjects,[1],0
same,Sunburn: number of subjects,[1],0
same,Thrombocytopenia: number of subjects,[1],0
same,Thrombocytosis: number of subjects,[1],0
same,Tonsillar hypertrophy: number of subjects,[1],0
same,Tooth fracture: number of subjects,[1],0
same,Type 2 diabetes mellitus: number of subjects,[1],0
same,Urinary tract disorder: number of subjects,[1],0
same,Uterine leiomyoma: number of subjects,[1],0
same,Vascular disorders: % of subjects,[1],(2.9%)
same,Vascular disorders: number of subjects,[1],1
same,Ventricular dysfunction: number of subjects,[1],0
same,Vertigo: number of subjects,[1],0
same,Vitamin D deficiency: number of subjects,[1],0
same,Investigations (system organ class): % of subjects,[2],(10.5%)
same,Nasopharyngitis: % of subjects,[2],(25.7%)
same,Infections and infestations AEs,"all groups, long-term extension",41.9%
same,Tolerability,"all treatment groups, long-term extension",well-tolerated
same,COVID-19,[3],5.3%
same,Nasopharyngitis,[3],18.1%
same,Participants experiencing 1 or more AEs,[3],58.600
same,Upper respiratory tract infection,[3],9.7%
same,Number of participants who discontinued study intervention due to one or more AEs,long-term extension,4
same,Participants with one or more serious adverse events,long-term extension,4.0%
same,Subjects with 1 or more Adverse events,"through Week 56, 25 mg BID",32
same,Subjects with 1 or more Adverse events: Alanine aminotransferase increased,"through Week 56, 25 mg BID",1
same,Subjects with 1 or more Adverse events: Arthralgia,"through Week 56, 25 mg BID",0
same,Subjects with 1 or more Adverse events: Aspartate aminotransferase increased,"through Week 56, 25 mg BID",1
same,Subjects with 1 or more Adverse events: Bronchitis,"through Week 56, 25 mg BID",2
same,Subjects with 1 or more Adverse events: COVID-19,"through Week 56, 25 mg BID",9
same,Subjects with 1 or more Adverse events: Cough,"through Week 56, 25 mg BID",0
same,Subjects with 1 or more Adverse events: Diarrhea,"through Week 56, 25 mg BID",2
same,Subjects with 1 or more Adverse events: Headache,"through Week 56, 25 mg BID",3
same,Subjects with 1 or more Adverse events: Influenza,"through Week 56, 25 mg BID",3
same,Subjects with 1 or more Adverse events: Nasopharyngitis,"through Week 56, 25 mg BID",8
same,Subjects with 1 or more Adverse events: Upper respiratory tract infection,"through Week 56, 25 mg BID",3
same,Subjects with 1 or more Adverse events: Urinary tract infection,"through Week 56, 25 mg BID",1
same,Subjects with 1 or more Serious adverse events,"through Week 56, 25 mg BID",3
same,Subjects with 1 or more Serious adverse events: COVID-19,"through Week 56, 25 mg BID",0
same,Subjects with 1 or more Serious adverse events: Cerebrovascular accident,"through Week 56, 25 mg BID",0
same,Subjects with 1 or more Serious adverse events: Coronary artery disease,"through Week 56, 25 mg BID",0
same,Subjects with 1 or more Serious adverse events: Diverticulitis,"through Week 56, 25 mg BID",0
same,Subjects with 1 or more Serious adverse events: Foot deformity,"through Week 56, 25 mg BID",0
same,Subjects with 1 or more Serious adverse events: Infected cyst,"through Week 56, 25 mg BID",0
same,Subjects with 1 or more Serious adverse events: Intervertebral disc protrusion,"through Week 56, 25 mg BID",0
same,Subjects with 1 or more Serious adverse events: Ligament injury,"through Week 56, 25 mg BID",1
same,Subjects with 1 or more Serious adverse events: Non-cardiac chest pain,"through Week 56, 25 mg BID",0
same,Subjects with 1 or more Serious adverse events: Suicide attempt,"through Week 56, 25 mg BID",0
same,Subjects with 1 or more Serious adverse events: Tonsillar hypertrophy,"through Week 56, 25 mg BID",1
same,Subjects with 1 or more Serious adverse events: Uterine leiomyoma,"through Week 56, 25 mg BID",0
same,Subjects with 1 or more Serious adverse events: Ventricular dysfunction,"through Week 56, 25 mg BID",1
same,Subjects with 1 or more treatment-emergent adverse events leading to discontinuation of study agent,"through Week 56, 25 mg BID",2
same,Subjects with 1 or more Adverse events,"through Week 56, 25 mg QD",24
same,Subjects with 1 or more Adverse events: Alanine aminotransferase increased,"through Week 56, 25 mg QD",1
same,Subjects with 1 or more Adverse events: Arthralgia,"through Week 56, 25 mg QD",1
same,Subjects with 1 or more Adverse events: Aspartate aminotransferase increased,"through Week 56, 25 mg QD",1
same,Subjects with 1 or more Adverse events: Bronchitis,"through Week 56, 25 mg QD",2
same,Subjects with 1 or more Adverse events: COVID-19,"through Week 56, 25 mg QD",6
same,Subjects with 1 or more Adverse events: Cough,"through Week 56, 25 mg QD",1
same,Subjects with 1 or more Adverse events: Diarrhea,"through Week 56, 25 mg QD",2
same,Subjects with 1 or more Adverse events: Headache,"through Week 56, 25 mg QD",2
same,Subjects with 1 or more Adverse events: Influenza,"through Week 56, 25 mg QD",0
same,Subjects with 1 or more Adverse events: Nasopharyngitis,"through Week 56, 25 mg QD",3
same,Subjects with 1 or more Adverse events: Upper respiratory tract infection,"through Week 56, 25 mg QD",7
same,Subjects with 1 or more Adverse events: Urinary tract infection,"through Week 56, 25 mg QD",2
same,Subjects with 1 or more Serious adverse events,"through Week 56, 25 mg QD",0
same,Subjects with 1 or more Serious adverse events: COVID-19,"through Week 56, 25 mg QD",0
same,Subjects with 1 or more Serious adverse events: Cerebrovascular accident,"through Week 56, 25 mg QD",0
same,Subjects with 1 or more Serious adverse events: Coronary artery disease,"through Week 56, 25 mg QD",0
same,Subjects with 1 or more Serious adverse events: Diverticulitis,"through Week 56, 25 mg QD",0
same,Subjects with 1 or more Serious adverse events: Foot deformity,"through Week 56, 25 mg QD",0
same,Subjects with 1 or more Serious adverse events: Infected cyst,"through Week 56, 25 mg QD",0
same,Subjects with 1 or more Serious adverse events: Intervertebral disc protrusion,"through Week 56, 25 mg QD",0
same,Subjects with 1 or more Serious adverse events: Ligament injury,"through Week 56, 25 mg QD",0
same,Subjects with 1 or more Serious adverse events: Non-cardiac chest pain,"through Week 56, 25 mg QD",0
same,Subjects with 1 or more Serious adverse events: Suicide attempt,"through Week 56, 25 mg QD",0
same,Subjects with 1 or more Serious adverse events: Tonsillar hypertrophy,"through Week 56, 25 mg QD",0
same,Subjects with 1 or more Serious adverse events: Uterine leiomyoma,"through Week 56, 25 mg QD",0
same,Subjects with 1 or more Serious adverse events: Ventricular dysfunction,"through Week 56, 25 mg QD",0
same,Subjects with 1 or more treatment-emergent adverse events leading to discontinuation of study agent,"through Week 56, 25 mg QD",3
same,Subjects with 1 or more Adverse events,"through Week 56, 50 mg QD",32
same,Subjects with 1 or more Adverse events: Alanine aminotransferase increased,"through Week 56, 50 mg QD",1
same,Subjects with 1 or more Adverse events: Arthralgia,"through Week 56, 50 mg QD",1
same,Subjects with 1 or more Adverse events: Aspartate aminotransferase increased,"through Week 56, 50 mg QD",1
same,Subjects with 1 or more Adverse events: Bronchitis,"through Week 56, 50 mg QD",4
same,Subjects with 1 or more Adverse events: COVID-19,"through Week 56, 50 mg QD",6
same,Subjects with 1 or more Adverse events: Cough,"through Week 56, 50 mg QD",2
same,Subjects with 1 or more Adverse events: Diarrhea,"through Week 56, 50 mg QD",4
same,Subjects with 1 or more Adverse events: Headache,"through Week 56, 50 mg QD",1
same,Subjects with 1 or more Adverse events: Influenza,"through Week 56, 50 mg QD",1
same,Subjects with 1 or more Adverse events: Nasopharyngitis,"through Week 56, 50 mg QD",13
same,Subjects with 1 or more Adverse events: Upper respiratory tract infection,"through Week 56, 50 mg QD",3
same,Subjects with 1 or more Adverse events: Urinary tract infection,"through Week 56, 50 mg QD",1
same,Subjects with 1 or more Serious adverse events,"through Week 56, 50 mg QD",3
same,Subjects with 1 or more Serious adverse events: COVID-19,"through Week 56, 50 mg QD",0
same,Subjects with 1 or more Serious adverse events: Cerebrovascular accident,"through Week 56, 50 mg QD",0
same,Subjects with 1 or more Serious adverse events: Coronary artery disease,"through Week 56, 50 mg QD",1
same,Subjects with 1 or more Serious adverse events: Diverticulitis,"through Week 56, 50 mg QD",0
same,Subjects with 1 or more Serious adverse events: Foot deformity,"through Week 56, 50 mg QD",1
same,Subjects with 1 or more Serious adverse events: Infected cyst,"through Week 56, 50 mg QD",1
same,Subjects with 1 or more Serious adverse events: Intervertebral disc protrusion,"through Week 56, 50 mg QD",0
same,Subjects with 1 or more Serious adverse events: Ligament injury,"through Week 56, 50 mg QD",0
same,Subjects with 1 or more Serious adverse events: Non-cardiac chest pain,"through Week 56, 50 mg QD",1
same,Subjects with 1 or more Serious adverse events: Suicide attempt,"through Week 56, 50 mg QD",0
